From patent US20240270821A1, “GIP/GLP1/GCG TRI-RECEPTOR AGONISTS AND USES THEREOF” (priority 2023, published 2024)
Substitutions are numbered along the chain they refer to. Where two headings read alike, the source gives them in different places. Marks after values point to notes of the source that are not given here. Starred links: 1 amine or outer side, 2 acyl side, 3 side chain; linkers in the order of their positions; H or OH if unused. Non-standard residues stand in square brackets, D forms with d. Groups on a side chain read outwards from the residue. No end group written: not given here. *: point of attachment. C20 diacid = O=C(O)CCCCCCCCCCCCCCCCCCC(=O)*; C18 diacid = O=C(O)CCCCCCCCCCCCCCCCC(=O)*; Phe(4-CN) = N#Cc1ccc(C[C@H](N)C(=O)O)cc1; αMePhe(2-F) = C[C@](N)(Cc1ccccc1F)C(=O)O; γGlu = O=C(O)[C@H](CCC(=O)[*:2])N[*:1]; εLys = N[C@@H](CCCCN[*:1])C(=O)[*:2]; αMe4Pal = C[C@](N)(Cc1ccncc1)C(=O)O; αMeL = CC(C)C[C@](C)(N)C(=O)O; AEEA = NCCOCCOCC(=O)O; Aib = CC(C)(N)C(=O)O

B1: Example 579 (peptide)
chain: YXQGTXTSDXSILLDKKAQXAFIEWLQEGGPSSGEPPPSGTEE
modifications: non-natural residues; lysine acylated with C18 diacid; C-terminal amide; synthetic construct; SITE 2: note = 2-Aminoisobutyric Acid; SITE 6: note = alpha-methyl-2-fluoro-L-phenylalanine; SITE 10: note = 3-(4-Pyridyl)-L-alanine; SITE 17: note = Lysine is chemically modified through conjugation of the epsilon-amino group of the Lysine side chain with (gamma-Glu)2-CO-(CH2)1
B2: Example 583 (peptide)
chain: B1 chain with K16X, W25Y
modifications: acylated lysine (γ-Glu)2 C18 diacid; non-natural residues; C-terminal amide; synthetic construct; SITE 2: note = 2-Aminoisobutyric Acid; SITE 6: note = alpha-methyl-2-fluoro-L-phenylalanine; SITE 10: note = 3-(4-Pyridyl)-L-alanine; SITE 16: note = L-ornithine; SITE 17: note = Lysine is chemically modified through conjugation of the epsilon-amino group of the Lysine side chai

Experiments:
hGIPR [1] = target: T1, hGIPR (Homo sapiens, UniProt P48546); test: Functional cAMP activity in the presence of 1% HSA; type: cell-based
T1 sequence (P48546 22-466): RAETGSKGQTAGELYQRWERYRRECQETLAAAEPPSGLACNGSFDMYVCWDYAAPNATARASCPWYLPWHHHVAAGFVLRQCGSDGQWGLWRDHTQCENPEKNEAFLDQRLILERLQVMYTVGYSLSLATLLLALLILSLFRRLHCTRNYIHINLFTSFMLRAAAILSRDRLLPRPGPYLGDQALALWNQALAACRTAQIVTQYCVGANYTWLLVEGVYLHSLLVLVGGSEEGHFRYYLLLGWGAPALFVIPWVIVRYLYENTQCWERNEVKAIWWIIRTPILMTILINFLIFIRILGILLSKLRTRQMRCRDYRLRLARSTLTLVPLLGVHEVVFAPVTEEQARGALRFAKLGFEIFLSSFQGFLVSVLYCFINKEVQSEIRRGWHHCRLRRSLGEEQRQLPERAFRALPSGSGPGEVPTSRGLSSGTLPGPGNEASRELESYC

hGLP-1R [2] = target: T2, hGLP-1R (Homo sapiens, UniProt P43220); test: Functional cAMP activity in the presence of 1% HSA; type: cell-based
Target sequence in this assay (P43220 24-463): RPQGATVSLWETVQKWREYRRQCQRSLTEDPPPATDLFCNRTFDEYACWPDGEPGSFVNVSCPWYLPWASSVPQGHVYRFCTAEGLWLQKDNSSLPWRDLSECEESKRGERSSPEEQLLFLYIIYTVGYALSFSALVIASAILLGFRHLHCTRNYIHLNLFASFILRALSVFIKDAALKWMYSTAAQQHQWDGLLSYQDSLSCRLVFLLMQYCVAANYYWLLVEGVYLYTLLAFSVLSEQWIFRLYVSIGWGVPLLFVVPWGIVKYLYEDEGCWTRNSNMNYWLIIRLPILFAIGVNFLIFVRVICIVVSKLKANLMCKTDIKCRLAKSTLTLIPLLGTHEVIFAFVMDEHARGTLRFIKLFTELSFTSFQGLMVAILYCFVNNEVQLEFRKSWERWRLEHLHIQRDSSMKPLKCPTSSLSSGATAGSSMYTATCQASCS

human GcgR = human GcgR (Homo sapiens, UniProt P47871); test: Functional cAMP activity in the presence of 1% HSA; type: cell-based
Chain of human GcgR (P47871 26-477): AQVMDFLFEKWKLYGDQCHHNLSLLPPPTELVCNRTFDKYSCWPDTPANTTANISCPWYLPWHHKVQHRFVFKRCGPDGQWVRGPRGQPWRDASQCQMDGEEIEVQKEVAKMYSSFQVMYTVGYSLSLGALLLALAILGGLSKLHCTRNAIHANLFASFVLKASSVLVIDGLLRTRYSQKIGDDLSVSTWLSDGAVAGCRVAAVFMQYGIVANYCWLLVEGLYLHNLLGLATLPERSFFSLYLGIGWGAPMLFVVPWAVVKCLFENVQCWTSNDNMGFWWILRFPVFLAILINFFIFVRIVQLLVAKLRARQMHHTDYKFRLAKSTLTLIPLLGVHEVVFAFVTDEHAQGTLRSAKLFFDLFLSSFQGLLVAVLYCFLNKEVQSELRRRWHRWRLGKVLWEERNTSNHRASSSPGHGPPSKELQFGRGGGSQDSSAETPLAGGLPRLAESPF

hGIPR [3] = target: T1, hGIPR; test: Functional cAMP activation in the presence of 0.1% casein (no HSA); type: cell-based;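 for Relative cAMP EC50, hGIPR: intracellular cAMP rise after 30 min at 37 °C read by HTRF against a standard curve, scaled between buffer alone (0%) and top control ligand concentration (100%), four-parameter fit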;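 for Relative cAMP EC50, hGLP-1R: intracellular cAMP rise after 30 min at 37 °C read by HTRF, normalized between buffer only (0%) and maximal control ligand (100%), four-parameter variable-slope fit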;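 for Relative cAMP EC50, hGcgR: intracellular cAMP rise after 30 min at 37 °C, read by HTRF against a cAMP standard curve, scaled from buffer only (0%) to maximal control ligand response (100%)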
hGLP-1R [4] = target: T2, hGLP-1R; test: as above; type: cell-based
Target sequence in this assay (P43220 24-463): as the sequence (P43220 24-463) above

hGcgR = hGcgR (Homo sapiens, UniProt P47871); test: as above; type: cell-based
Chain of hGcgR (P47871 26-477): as the sequence (P47871 26-477) above

human GLP1-R = human GLP1-R (Homo sapiens, UniProt P43220); test: GLP1-R internalization assay in HEK293 cells; type: cell-based; conditions: for Internalization % TOP: normalized to maximum concentration of GLP-1 (100%)
Chain of human GLP1-R (P43220 24-463): as the sequence (P43220 24-463) above

[5] = In vivo ileum (distal loop) absorption assay; conditions: Sprague Dawley, rat, 300 μM peptide with 100 mM C10, rats; for level at time molar at 10 min: read-out: 10 min IL plasma concentration; for level at time molar at 20 min: read-out: 20 min IL plasma concentration; for level at time molar at 40 min: read-out: 40 min IL plasma concentration; for level at time molar at 1 h: 60 min, read-out: 60 min IL plasma concentration
Experimental: Ileum absorption of the exemplary polypeptides in the presence of C10 in rats is evaluated using a previously reported intestinal closed loop model (Lawrence, S. A.; Blankenship, R.; Brown, […].; Ellis, B.; Thangaraju, A.; Datta-Mannan, A., Influence of FcRn binding properties on the gastrointestinal absorption and exposure profile of Fc molecules. […] Overnight fasted Sprague Dawley rats with body weights between 250-280 grams are anesthetized by inhaling isoflurane and placed on a warm surgical table maintained by circulating water at 37 °C. The surgical area is shaved, and the skin is disinfected with betadine scrub followed by 70% isopropyl alcohol. An approximately 2 cm ventral midline incision is made to expose intestine, and 10 cm of an ileum segment is tied off. The peptides are formulated with 100 mM C10 in Tris buffer (pH 8.0, 50 mM) at a final concentration of 300 μM. The formulations are administered directly into the ileum loop. […] Blood samples are collected into tubes containing […] (5%) and processed to plasma for subsequent analyses. Peptide concentrations in the plasma are determined by LC/MS.

[6] = Pharmacokinetics in male Sprague Dawley rats, single subcutaneous administration; conditions: rat, in vivo, sc, 10 nmol/kg
Experimental: The pharmacokinetics of the exemplary analogs are evaluated following a single subcutaneous (SC) administration of 10 nmol/kg (dissolved in 40 mM Tris pH8) or single 4 mg/kg (mixed with 250 mM sodium decanoate/C10 in 40 mM Tris pH8) intrajejunal (IJ) administration to male Sprague Dawley rats. Blood samples are collected over 96 hours following SC administration and 72 hours following IJ dosing, and resulting individual plasma concentrations are used to calculate pharmacokinetic parameters. Peptide plasma (K3 EDTA) concentrations are determined using a qualified LC/MS method that measured the intact mass of the analog. Each peptide and an analog as an internal standard are extracted from rat plasma using methanol. A High Resolution Instrument was used for LC/MS detection.

[7] = Body weight in diet-induced obese C57BL/6 mice; type: in vivo; conditions: percent of starting weight, DIO mice, mean ± SEM n=5
Outline: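 Daily weighing gave body weight as percent of starting value (mean±SEM, n=5) over 9-16 days of SC dosing, once daily or every 3 days, shortly before lights-off. Animals were weight-randomized male C57BL/6 DIO mice, 41-50 g, fed ad libitum on a calorie-rich diet.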

hGLP-1R [8] = target: T2, hGLP-1R; test: GLP-1R CHO cell β-arrestin recruitment assay; type: cell-based; set-up: host or cells: CHO-K1 (PathHunter, assay-ready frozen cells); conditions: for EC50: CHO-K1 PathHunter, β-arrestin-2, 0.1% casein, read-out: hGLP1R β-arrestin Rel EC50; for % Stimulation Max: normalized to GLP-1(7-36) as maximum control;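 for all read-outs here: luminescence read after 90 min peptide exposure at 37 °C and a further 60 min with detection reagent at room temperature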
Target sequence in this assay (P43220 24-463): as above
Target sequence in this assay (P32121 whole entry partner): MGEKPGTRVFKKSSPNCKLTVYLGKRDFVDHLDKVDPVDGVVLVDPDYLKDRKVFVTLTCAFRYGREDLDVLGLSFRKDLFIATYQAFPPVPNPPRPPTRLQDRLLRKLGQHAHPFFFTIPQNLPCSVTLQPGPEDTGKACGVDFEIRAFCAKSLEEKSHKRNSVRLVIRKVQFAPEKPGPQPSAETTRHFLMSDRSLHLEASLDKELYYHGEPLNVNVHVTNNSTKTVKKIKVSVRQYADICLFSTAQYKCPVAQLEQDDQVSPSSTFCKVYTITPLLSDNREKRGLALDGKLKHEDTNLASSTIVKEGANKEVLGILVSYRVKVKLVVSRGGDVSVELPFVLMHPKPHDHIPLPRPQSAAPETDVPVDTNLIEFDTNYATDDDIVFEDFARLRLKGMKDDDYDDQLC
Experimental: CHO-KI cells expressing Pro-Link-tagged Human GLP-1R and enzyme-acceptor-tagged β-arrestin-2 may be obtained from DiscoveRx and prepared as assay-ready frozen cells. Test peptides are solubilized in DMSO and serial dilutions are performed using the Echo acoustic dispenser (LabCyte). Assay media is the PathHunter Cell Assay Buffer (DiscoveRx) containing 0.1% w/v hydrolyzed Casein (Sigma). […] Plates are incubated for 90 minutes in a 37′C/5% C02 incubator and 10 μl of PathHunter detection reagent is added (DiscoveRx) and plates are incubated at room temperature for 60 minutes. Luminescence signal is measured. Peptide concentration-response curves fit to a four-parameter logistic model to calculate potency as an EC50.

hGLP-1R [9] = target: T2, hGLP-1R; test: cell-based or functional assay
Target sequence in this assay (P43220 24-463): as the sequence (P43220 24-463) above

[10] = target: T3, human GIP receptor (hGIPR) (human) (UniProt P48546); test: cell-based or functional assay
T3 sequence (looked up): T1 sequence (P48546 22-466)

[11] = target: T4, human GIP receptor (human) (UniProt P48546); test: cell-based or functional assay
T4 sequence (looked up): T1 sequence (P48546 22-466)

[12] = target: human GLP-1 receptor (hGLP-1R) (human) (UniProt P43220); test: cell-based or functional assay
Chain of human GLP-1 receptor (hGLP-1R) (human) (P43220 24-463): as above

[13] = target: human glucagon receptor (hGcgR) (human) (UniProt P47871); test: cell-based or functional assay
Chain of human glucagon receptor (hGcgR) (human) (P47871 26-477): as the sequence (P47871 26-477) above

[14] = target: human glucagon receptor (human) (UniProt P47871); test: cell-based or functional assay
Chain of human glucagon receptor (human) (P47871 26-477): as above

[15] = read-out: cAMP Rel EC50, hGLP-1R
[16] = in the presence of 0.1% casein (no HSA), geometric mean, read-out: Relative cAMP EC50, hGIPR
[17] = in the presence of 0.1% casein (no HSA), geometric mean, read-out: Relative cAMP EC50, hGLP-1R
[18] = in the presence of 0.1% casein (no HSA), geometric mean, read-out: Relative cAMP EC50, hGcgR
[19] = HEK293 cells expressing SNAP-GLP-1R, read-out: GLP1R Internalization EC50

Molecule | Internalization % TOP (human GLP1-R) | EC50 (hGIPR [1]; read-out: cAMP Rel EC50, hGIPR) | EC50 (hGLP-1R [2]; [15]) | EC50 (human GcgR; read-out: cAMP Rel EC50, hGcgR) | EC50 (hGIPR [3]; [16]) | EC50 (hGLP-1R [4]; [17]) | EC50 (hGcgR; [18]) | CL/F [6] | half-life [6] | Body weight (%) ([7]; 10 nmol/kg SC Q3D, 14 days) | EC50 (human GLP1-R; [19]) | EC50 (hGLP-1R [8]) | % Stimulation Max (hGLP-1R [8]) | other results
CC[C@H](C)[C@H](NC(=O)[C@H](Cc1ccccc1)NC(=O)[C@H](C)NC(=O)C(C)(C)NC(=O)[C@H](CCC(N)=O)NC(=O)[C@H](C)NC(=O)[C@H](CCCCNC(=O)COCCOCCNC(=O)CC[C@H](NC(=O)CCCCCCCCCCCCCCCCC(=O)O)C(=O)O)NC(=O)[C@H](CCCCN)NC(=O)[C@H](CC(=O)O)NC(=O)[C@H](CC(C)C)NC(=O)[C@](C)(CC(C)C)NC(=O)[C@H](CCC(N)=O)NC(=O)[C@H](CO)NC(=O)[C@H](Cc1ccccc1)NC(=O)[C@H](CC(=O)O)NC(=O)[C@H](CO)NC(=O)[C@@H](NC(=O)[C@H](Cc1ccccc1)NC(=O)[C@@H](NC(=O)CNC(=O)[C@H](CCC(N)=O)NC(=O)C(C)(C)NC(=O)[C@@H](N)Cc1ccc(O)cc1)[C@@H](C)O)[C@@H](C)O)C(=O)N[C@@H](CCC(=O)O)C(=O)N[C@@H](Cc1ccc(O)cc1)C(=O)N[C@@H](CC(C)C)C(=O)N[C@@H](CC(C)C)C(=O)N[C@@H](CCC(=O)O)C(=O)NC(C)(C)C(=O)NCC(=O)N1CCC[C@H]1C(=O)N[C@@H](CO)C(=O)N[C@@H](CO)C(=O)NCC(=O)N[C@@H](C)C(=O)N1CCC[C@H]1C(=O)N1CCC[C@H]1C(=O)N1CCC[C@H]1C(=O)N[C@@H](CO)C(=O)NCC(=O)N[C@@H](CO)C(N)=O [Example 151] | 55% | – | – | – | – | – | – | – | – | – | – | – | – | EC50 (hGIPR [1]): 14.9 nM; EC50 (hGLP-1R [2]): 384 nM; EC50 (human GcgR): 1420 nM; EC50 (hGIPR [3]): 0.0784 nM; EC50 (hGLP-1R [4]): 1.6 nM; EC50 (hGcgR): 3.5 nM; EC50 (human GLP1-R): 77.8 nM; AUC [5]: 0.0886 µM·h; level at time molar at 10 min [5]: 69 nM; level at time molar at 20 min [5]: 95 nM; level at time molar at 40 min [5]: 115 nM; level at time molar at 1 h [5]: 124 nM
H-Y[Aib]QGTFTSDYSI[αMeL]LDKK([AEEA-γGlu-C20 diacid])AQRAFIEYLLEGGPSSGEPPPSEG-NH2 [Example 289] | 86.5% | 105 nM | 139 nM | 1750 nM | 0.382 nM | 0.449 nM | 5.02 nM | 0.0645 mL/min/kg | 22.4 h | 82.32 ± 1.25 % | 10.9 nM | 5.96 nM | 47.5% | Body weight (%) ([7]; 10 nmol/kg SC QD, 16 days): 60.94 ± 1.87 %
H-Y[Aib]QGTFTSDYSI[αMeL]LDKQAAK([εLys-εLys-γGlu-C20 diacid])QFVEWLLA[Aib]GPSSGEPPPSEG-NH2 [Example 329] | 91.1% | 42.6 nM | 204 nM | 842 nM | 0.207 nM | 0.926 nM | 3.47 nM | 0.322 mL/min/kg | 12.6 h | – | 34 nM | 6.11 nM | 74.5% | –
H-Y[Aib]QGT[αMePhe(2-F)]TSD[Phe(4-CN)]SILLDKQAQK([AEEA-AEEA-γGlu-C20 diacid])AFIEYLLEGGPSSGEPPPSEG-NH2 [Example 321] | 92.8% | 13 nM | 110 nM | 836 nM | 0.0912 nM | 0.798 nM | 4.49 nM | 0.137 mL/min/kg | 26.2 h | 87.14 +/− 0.59*** % | 27.1 nM | 8.78 nM | 90.1% | –
Y[Aib]QGTFTSDFSK[αMeL]LDKK([AEEA-γGlu-C20 diacid])AQ[Aib]AFIEYLLAGGPSSGEPPPSGE-NH2 [Example 2] | 66.8% | 75.5 nM | 631 nM | 1630 nM | 0.207 nM | 1.65 nM | 4.29 nM | 0.143 mL/min/kg | 12.1 h | 77.90 +/− 1.90**** % | 49.5 nM | > 10000 nM | 12.3% | –
Y[Aib]QGTFTSDFSQ[αMeL]LDKK([AEEA-γGlu-C18 diacid])AQ[αMe4Pal]AFIEYLIE[Aib]GESSGAPPPSGS-NH2 [Example 232] | 45.5% | – | – | – | – | – | – | – | – | – | – | – | – | EC50 (hGIPR [1]): 24.6 nM; EC50 (hGLP-1R [2]): 226 nM; EC50 (human GcgR): 482 nM; EC50 (hGIPR [3]): 0.102 nM; EC50 (hGLP-1R [4]): 0.819 nM; EC50 (hGcgR): 2.42 nM; EC50 (human GLP1-R): 44.7 nM; AUC [5]: 0.202 µM·h; level at time molar at 10 min [5]: 186 nM; level at time molar at 20 min [5]: 235 nM; level at time molar at 40 min [5]: 255 nM; level at time molar at 1 h [5]: 256 nM
B1 | – | – | – | – | – | – | – | – | – | – | – | – | – | cAMP Rel EC50, nM (presence of 1% HSA) (hGLP-1R [9]): 67.3 nM; Relative cAMP EC50 [10]: 0.0171 nM; cAMP Rel EC50, nM (presence of 1% HSA) [11]: 3.79 nM; Relative cAMP EC50 [12]: 0.252 nM; Relative cAMP EC50 [13]: 2.36 nM; cAMP Rel EC50, nM (presence of 1% HSA) [14]: 679 nM
B2 | – | – | – | – | – | – | – | – | – | – | – | – | – | cAMP Rel EC50, nM (presence of 1% HSA) (hGLP-1R [9]): 71 nM; Relative cAMP EC50 [10]: 0.0692 nM; cAMP Rel EC50, nM (presence of 1% HSA) [11]: 12.3 nM; Relative cAMP EC50 [12]: 0.542 nM; Relative cAMP EC50 [13]: 6.32 nM; cAMP Rel EC50, nM (presence of 1% HSA) [14]: 1250 nM
